The values that follow come from paper PMC9652212 (Clinical Pharmacokinetics, 2022).

Where two headings read alike, the source gives them in different places. Some results are limits rather than exact numbers.

Data set [1] is classed as in vivo, human.
For data set [2] the following is noted: cited from earlier work.
Data set [3] has as its system CYP3A. The settings on record: cited from earlier work.
Data set [4] deals with hepatic CYP3A activity. The settings on record: time after (first) perpetrator drug administration.
For data set [5], the system named is pooled human liver microsomes. The settings on record: MDZ and efavirenz; cited from earlier work.
The mark [6] stands for this setting: oral and i.v. bolus administration.
The mark [7] stands for this setting: calculated from model parameters.
Where [8] appears, read: metabolite in the absence of parent compound, ref Hotz et al. 27.
Setting [9] is: ref Wiebe et al. 23, Tomalik-Scharte et al. 25.

The Vd is the apparent volume that relates the amount in the body to the concentration in plasma or blood. Lower therefore signals confinement near the circulation. One may read the clearance as the volume of plasma or blood freed of the substance per unit of time. Lower therefore signals inefficient removal. Regarding `Cc1ncc2n1-c1ccc(Cl)cc1C(c1ccccc1F)=NC2` [midazolam], in data set [1] (human, plasma, intravenous), the Vd amounted to 56.7 L and the clearance was 732 mL/min. In data set [1] (interindividual variability), the “IIV of MDZ CL” value was 21.9 %CV and the “IIV of MDZ volume of distribution” value is on record as 29.9 %CV. In addition, in data set [2] (setting [6]), the “MDZ CL, reported” value is 15.2 to 45.0 L/h and the “MDZ V, reported” value is 33.3 to 180 L/h.
Turning to `C[C@@H](c1ncncc1F)[C@](O)(Cn1cncn1)c1ccc(F)cc1F` [voriconazole], the Oral bioavailability in data set [2] is given as over 90%. Besides, the “Decrease in hepatic CYP3A activity” value in data set [3] (within 12 h after oral voriconazole, semi-physiological model) was 75%.
Turning to `OCc1ncc2n1-c1ccc(Cl)cc1C(c1ccccc1F)=NC2` [1’-OH-MDZ, 1’-hydroxymidazolam], in data set [1] (setting [7]), the “Elimination rate constant of 1’-OH-MDZ” value was 0.880 h⁻¹ and the “Formation rate constant of 1’-OH-MDZ” value was 0.712 h⁻¹. Also, the “IIV of 1’-OH-MDZ CL” value in data set [1] (interindividual variability) is given as 42.0 %CV. For the same compound, the “1’-OH-MDZ CL” value in data set [1] (population estimate after metabolic conversion of MDZ) is 264 L/h. Moreover, in data set [2] (setting [8]), the “1’-OH-MDZ CL, reported” value is 34.4 to 56.7 L/h and the “1’-OH-MDZ V, reported” value was 49.7 to 79.8 L. For the same compound, in data set [2] (setting [9]), the “1’-OH-MDZ CL, reported” value is 186 to 208 L/h and the “1’-OH-MDZ V, reported” value was 256 to 876 L.
For the compound `O=C1Nc2ccc(Cl)cc2[C@@](C#CC2CC2)(C(F)(F)F)O1` [efavirenz], the “Time of maximum CYP3A modulatory effect” value in data set [4] is 2 to 4 h. The “Increase in MDZ CL” value in data set [3] (12 h after efavirenz administration, ref Mikus et al. 32) was 27%. Moreover, the “Increase in metabolite formation rates” value in data set [5] is on record as ~ 1.5 fold.
